Assay results taken from ChEMBL document CHEMBL1201862, “PubChem BioAssay data set” (2004).
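Protocol summary: plate cells (96-well), add compound at 5 concentrations, incubate 48 h, interpolate endpoints linearly. The concentration for 50% growth inhibition is given as GI50.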 Calls of active or inactive are those of the source. Rule as the data show it: active = GI50 up to about 1.1 µM and inactive = higher.

Experiments:
Experiment in all cases: NCI tumour cell line growth inhibition, 48 h
LXFL 529 = tested on: LXFL 529
KM-20L2 = tested on: KM-20L2
SNB-78 = tested on: SNB-78
DMS-114 = tested on: DMS-114
M19-MEL = tested on: M19-MEL
DLD-1 = tested on: DLD-1
XF498 = tested on: XF498
HOP-18 = tested on: HOP-18
RXF 631 = tested on: RXF 631

Measured: GI50

CCNC(=O)/C=C/CCC#Cc1ccc(-c2ccc(-c3cccs3)s2)s1
inactive: LXFL 529 > 100 µM | KM-20L2 > 100 µM | SNB-78 > 100 µM | DMS-114 > 100 µM | M19-MEL > 100 µM | DLD-1 > 100 µM | XF498 2.71 µM | HOP-18 4.82 µM

CC(=O)O[C@]12CCCCCCC1C1(O)C(O)CCC[C@H]12 (some centres not stated)
inactive: LXFL 529 > 100 µM | KM-20L2 > 100 µM | SNB-78 > 100 µM | DMS-114 > 100 µM | M19-MEL > 100 µM | XF498 > 100 µM | HOP-18 > 100 µM

CC(=O)NC(CCCN)C(=O)NCc1ccccc1 (configuration not stated)
inactive: LXFL 529 > 100 µM | KM-20L2 > 100 µM | SNB-78 > 100 µM | DMS-114 > 100 µM | M19-MEL > 100 µM | DLD-1 > 100 µM | XF498 > 100 µM

CC1(CO)C(=O)OC12CCCCC2 (configuration not stated)
inactive: LXFL 529 > 100 µM | SNB-78 > 100 µM | DMS-114 > 100 µM | M19-MEL > 100 µM | DLD-1 > 100 µM | RXF 631 > 100 µM | XF498 > 100 µM

CC1=NN(C(=O)c2cc(Cl)cc([N+](=O)[O-])c2)C(=O)C1/N=N/c1ccccc1C(=O)O (configuration not stated)
inactive: LXFL 529 > 100 µM | SNB-78 > 100 µM | M19-MEL > 100 µM | DLD-1 > 100 µM | RXF 631 > 100 µM | HOP-18 > 100 µM

CCOC(=O)CCc1c(C)c2c(OC(C)=O)cc(OC(C)=O)cc2oc1=O
inactive: LXFL 529 37.4 µM | KM-20L2 > 100 µM | SNB-78 47.6 µM | DMS-114 23.4 µM | M19-MEL 61.9 µM | DLD-1 46 µM | HOP-18 > 100 µM

Cc1ccc([N+](=O)[O-])cc1NC(=O)c1cccc([N+](=O)[O-])c1O
inactive: LXFL 529 19.1 µM | KM-20L2 25.5 µM | SNB-78 20.8 µM | DMS-114 8.73 µM | M19-MEL 15.5 µM | DLD-1 20.7 µM | XF498 18.2 µM

CC(=O)OCC1OC(N2C(=O)/C(=N\NC(N)=S)c3ccc([N+](=O)[O-])cc32)C(OC(C)=O)C1OC(C)=O (configuration not stated)
inactive: LXFL 529 50 µM | KM-20L2 31.5 µM | SNB-78 33.3 µM | DMS-114 23.1 µM | M19-MEL 18.4 µM | DLD-1 29.6 µM | XF498 29.9 µM | HOP-18 > 100 µM

Nc1nnc2nc(CC(=O)/C=C/c3ccccc3)c(=O)[nH]n12
inactive: LXFL 529 > 100 µM | KM-20L2 > 100 µM | SNB-78 > 100 µM | DMS-114 > 100 µM | M19-MEL > 100 µM | DLD-1 > 100 µM | RXF 631 > 100 µM | XF498 > 100 µM

O=C(O)CCSC(=S)Nc1cccc(F)c1
inactive: LXFL 529 62.2 µM | KM-20L2 89.1 µM | SNB-78 97.1 µM | DMS-114 19.6 µM | M19-MEL 28.2 µM | DLD-1 50.7 µM | HOP-18 > 100 µM

CCN(CC)CCOC(=O)c1ccc(N)cc1.CCOC(=O)Nc1ccc(S(=O)(=O)OC)cc1.CCOC(=O)Nc1ccc(S(=O)(=O)OC)cc1.Nc1ccc(C(=O)O)c(O)c1
inactive: LXFL 529 > 100 µM | KM-20L2 > 100 µM | SNB-78 > 100 µM | DMS-114 > 100 µM | M19-MEL > 100 µM | DLD-1 > 100 µM | RXF 631 > 100 µM | HOP-18 > 100 µM

O=C1N2Cc3c4ccc5c3CN3C(=O)N6Cc7c(ccc(c7CN1C6(c1ccccc1)C23c1ccccc1)OCCOCCOc1cc(Br)c(Br)cc1OCCOCCO4)OCCOCCOc1cc(Br)c(Br)cc1OCCOCCO5 (configuration not stated)
inactive: LXFL 529 67.3 µM | KM-20L2 > 100 µM | SNB-78 > 100 µM | DMS-114 41.2 µM | M19-MEL > 100 µM | DLD-1 20.2 µM | RXF 631 > 100 µM | HOP-18 > 100 µM

CC1CCc2c(sc3ncnc(N/N=C/c4ccc(Cl)cc4)c23)C1 (configuration not stated)
inactive: KM-20L2 22.8 µM | DLD-1 33.6 µM

COc1cc2cc[n+](C)c(Cc3ccccc3)c2cc1OC
inactive: LXFL 529 > 100 µM | KM-20L2 > 100 µM | SNB-78 > 100 µM | DMS-114 79.6 µM | M19-MEL > 100 µM | HOP-18 > 100 µM

C=CCN1C(=O)CS/C1=N\NC(=O)c1c(C)nc2sccn12
inactive: LXFL 529 > 100 µM | KM-20L2 > 100 µM | DMS-114 > 100 µM | M19-MEL > 100 µM | DLD-1 > 100 µM | RXF 631 > 100 µM | XF498 > 100 µM | HOP-18 > 100 µM

CC1=C(C(=O)Nc2cc(F)c(F)cc2F)C(c2ccc(N(C)C)cc2)C(C(=O)Nc2cc(F)c(F)cc2F)=C(C)N1
inactive: LXFL 529 19.3 µM | KM-20L2 34 µM | SNB-78 17.7 µM | DMS-114 17.2 µM | M19-MEL 38 µM | DLD-1 34.9 µM | RXF 631 23 µM

CN(C)CCNC(=O)c1cccc2ccc(-c3cccnc3)nc12
inactive: SNB-78 7.11 µM | DMS-114 6.52 µM | M19-MEL 5.71 µM | DLD-1 4.41 µM | RXF 631 3.48 µM | HOP-18 13.7 µM

COc1ccc(C2NCCc3c2[nH]c2ccccc32)cc1 (configuration not stated)
inactive: LXFL 529 95.3 µM | KM-20L2 > 100 µM | M19-MEL > 100 µM | DLD-1 > 100 µM | RXF 631 67 µM | XF498 28.1 µM | HOP-18 58.7 µM

O=C(Nc1c(-c2nc3ccccc3[nH]2)sc(=S)n1-c1ccccc1)c1ccccc1
inactive: LXFL 529 58.9 µM | SNB-78 61.7 µM | DMS-114 98.9 µM | M19-MEL > 100 µM | DLD-1 > 100 µM | RXF 631 > 100 µM | HOP-18 > 100 µM

COC(=O)c1ccccc1NC(=O)C(=O)CC(=O)c1ccccc1NC1=CC(=O)C(=O)c2ccccc21
inactive: LXFL 529 5.09 µM | KM-20L2 72.9 µM | SNB-78 7.66 µM | DMS-114 1.71 µM | M19-MEL 2.02 µM | DLD-1 4.57 µM | RXF 631 26.5 µM | XF498 15.6 µM | HOP-18 7.59 µM

CSc1n/c(=N\c2ccccc2)sn1-c1ccccc1
inactive: KM-20L2 13.6 µM | SNB-78 20.7 µM | DMS-114 3.15 µM | M19-MEL 5.58 µM

Cn1c(=O)c(NC(=O)C(Cl)(Cl)Cl)nc2ccccc21
inactive: LXFL 529 > 100 µM | KM-20L2 > 100 µM | SNB-78 > 100 µM | DMS-114 > 100 µM | M19-MEL > 100 µM | DLD-1 > 100 µM | RXF 631 > 100 µM | XF498 > 100 µM
